Results taken from patent US20250032460A1, “METHODS OF TREATING NEUROLOGICAL DISORDERS” (MapLight Therapeutics, Inc., priority 2021, published 2025).

Assays:
[1] = system: Compound 1 induced salivation; assay: Fesoterodine dose-response antagonistic effect on Compound 1 induced salivation in anaesthetized rats; format: in vivo, Sprague Dawley rats
Procedure: An in vivo primary pharmacology study evaluating the fesoterodine fumarate dose-response antagonistic effect on Compound 1 induced salivation in anaesthetized male Sprague Dawley rats was conducted. […] Intravenous fesoterodine doses were administered at […]. Fesoterodine was dosed 10 minutes prior to dosage of Compound 1. All animals were normal with no observed abnormality detected in clinical signs or behavior. Salivation was measured by using oral dry swab in anesthetized rats with the calculated difference between the dry swab weight and the wet swab weight indicating the weight of saliva produced. Samples were collected post-dosing for one hour at 10-minute intervals.

salivation = assay: Single ascending dose study: salivation (pharmacodynamics); format: in vivo, healthy adult volunteers; details: Group 2: 8 mg fesoterodine fumarate 4 hours prior to 40 mg Compound 1, vs placebo pre-treatment (FIG. 2)
Procedure: MTD was established at the dose which produced mild to moderate cholinergic adverse effects. Cholinergic effects were monitored for each dose, including pupillometry and salivation.
Group 2 evaluated tolerability of Compound 1 at Group 1 MTD with or without fesoterodine fumarate co-administration. Subjects received 8 mg of fesoterodine fumarate tablet or matched placebo tablet 4 hours prior to administration of 40 mg of Compound 1.

[2] = Clinical observations during 7-day oral dosing in beagle dogs; details: for Clinical Observation: Group 2: fesoterodine fumarate 3 mg/kg/day PO, individual dog
[3] = Fesoterodine 0.0078 mg/mL IV 10 min prior to Compound 1 (1.5 mg/kg) IV
[4] = Fesoterodine 0.0156 mg/mL IV 10 min prior to Compound 1 (1.5 mg/kg) IV
[5] = Fesoterodine 0.0312 mg/mL IV 10 min prior to Compound 1 (1.5 mg/kg) IV
[6] = Fesoterodine 0.0625 mg/mL IV 10 min prior to Compound 1 (1.5 mg/kg) IV
[7] = Fesoterodine 0.125 mg/mL IV 10 min prior to Compound 1 (1.5 mg/kg) IV
[8] = Fesoterodine 0.25 mg/mL IV 10 min prior to Compound 1 (1.5 mg/kg) IV
[9] = Fesoterodine 0.5 mg/mL IV 10 min prior to Compound 1 (1.5 mg/kg) IV

**Q.** Which “Salivation (mg) (mean value), 10 min” value [1, 3] does the source give for CC(C)C(=O)Oc1ccc(CO)cc1[C@H](CCN(C(C)C)C(C)C)c1ccccc1 [Fesoterodine, fesoterodine] here?
**A.** 347.49 mg

**Q.** What about the “Salivation (mg) (mean value), 20 min” value [1, 3] of the same compound?
**A.** 90.03 mg

**Q.** What about the “Salivation (mg) (mean value), 30 min” value [1, 3] of the same compound?
**A.** 26.31 mg

**Q.** What about the “Salivation (mg) (mean value), 40 min” value [1, 3] of the same compound?
**A.** 10.29 mg

**Q.** What about the “Salivation (mg) (mean value), 50 min” value [1, 3] of the same compound?
**A.** 9.96 mg

**Q.** What about the “Salivation (mg) (mean value), 60 min” value [1, 3] of the same compound?
**A.** 7.74 mg

**Q.** What about the “Salivation (mg) (mean value), Total” value [1, 3] of the same compound?
**A.** 491.83 mg

**Q.** And the “Salivation (mg) (mean value), 10 min” value [1, 4]?
**A.** 163.43 mg

**Q.** What about the “Salivation (mg) (mean value), 20 min” value [1, 4] of the same compound?
**A.** 69.8 mg

**Q.** What about the “Salivation (mg) (mean value), 30 min” value [1, 4] of the same compound?
**A.** 30.58 mg

**Q.** And the “Salivation (mg) (mean value), 40 min” value [1, 4]?
**A.** 16.26 mg

**Q.** What about the “Salivation (mg) (mean value), 50 min” value [1, 4] of the same compound?
**A.** 11.66 mg

**Q.** What about the “Salivation (mg) (mean value), 60 min” value [1, 4] of the same compound?
**A.** 5.71 mg

**Q.** What about the “Salivation (mg) (mean value), Total” value [1, 4] of the same compound?
**A.** 297.45 mg

**Q.** What about the “Salivation (mg) (mean value), 10 min” value [1, 5] of the same compound?
**A.** 95.37 mg

**Q.** And the “Salivation (mg) (mean value), 20 min” value [1, 5]?
**A.** 61.86 mg

**Q.** And the “Salivation (mg) (mean value), 30 min” value [1, 5]?
**A.** 29.68 mg

**Q.** What about the “Salivation (mg) (mean value), 40 min” value [1, 5] of the same compound?
**A.** 8.31 mg

**Q.** And the “Salivation (mg) (mean value), 50 min” value [1, 5]?
**A.** 8.78 mg

**Q.** What about the “Salivation (mg) (mean value), 60 min” value [1, 5] of the same compound?
**A.** 6.64 mg

**Q.** And the “Salivation (mg) (mean value), Total” value [1, 5]?
**A.** 210.64 mg

**Q.** What about the “Salivation (mg) (mean value), 10 min” value [1, 6] of the same compound?
**A.** 66.8 mg

**Q.** What about the “Salivation (mg) (mean value), 20 min” value [1, 6] of the same compound?
**A.** 27.58 mg

**Q.** And the “Salivation (mg) (mean value), 30 min” value [1, 6]?
**A.** 12.89 mg

**Q.** And the “Salivation (mg) (mean value), 40 min” value [1, 6]?
**A.** 9.18 mg

**Q.** And the “Salivation (mg) (mean value), 50 min” value [1, 6]?
**A.** 6.56 mg

**Q.** And the “Salivation (mg) (mean value), 60 min” value [1, 6]?
**A.** 2.45 mg

**Q.** And the “Salivation (mg) (mean value), Total” value [1, 6]?
**A.** 125.47 mg

**Q.** What about the “Salivation (mg) (mean value), 10 min” value [1, 7] of the same compound?
**A.** 45.22 mg

**Q.** And the “Salivation (mg) (mean value), 20 min” value [1, 7]?
**A.** 21.91 mg

**Q.** What about the “Salivation (mg) (mean value), 30 min” value [1, 7] of the same compound?
**A.** 7.85 mg

**Q.** What about the “Salivation (mg) (mean value), 40 min” value [1, 7] of the same compound?
**A.** 5.06 mg

**Q.** What about the “Salivation (mg) (mean value), 50 min” value [1, 7] of the same compound?
**A.** 4.73 mg

**Q.** What about the “Salivation (mg) (mean value), 60 min” value [1, 7] of the same compound?
**A.** 3.5 mg

**Q.** And the “Salivation (mg) (mean value), Total” value [1, 7]?
**A.** 88.27 mg

**Q.** And the “Salivation (mg) (mean value), 10 min” value [1, 8]?
**A.** 7 mg

**Q.** And the “Salivation (mg) (mean value), 20 min” value [1, 8]?
**A.** 3.13 mg

**Q.** And the “Salivation (mg) (mean value), 30 min” value [1, 8]?
**A.** 3.17 mg

**Q.** And the “Salivation (mg) (mean value), 40 min” value [1, 8]?
**A.** 2.15 mg

**Q.** And the “Salivation (mg) (mean value), 50 min” value [1, 8]?
**A.** 2.49 mg

**Q.** What about the “Salivation (mg) (mean value), 60 min” value [1, 8] of the same compound?
**A.** 1.37 mg

**Q.** And the “Salivation (mg) (mean value), Total” value [1, 8]?
**A.** 19.31 mg

**Q.** And the “Salivation (mg) (mean value), 10 min” value [1, 9]?
**A.** 7.23 mg

**Q.** And the “Salivation (mg) (mean value), 20 min” value [1, 9]?
**A.** 2.83 mg

**Q.** And the “Salivation (mg) (mean value), 30 min” value [1, 9]?
**A.** 1.21 mg

**Q.** And the “Salivation (mg) (mean value), 40 min” value [1, 9]?
**A.** 4.11 mg

**Q.** What about the “Salivation (mg) (mean value), 50 min” value [1, 9] of the same compound?
**A.** 2.5 mg

**Q.** What about the “Salivation (mg) (mean value), 60 min” value [1, 9] of the same compound?
**A.** 1.8 mg

**Q.** What about the “Salivation (mg) (mean value), Total” value [1, 9] of the same compound?
**A.** 19.69 mg

**Q.** What about the “Fesoterodine effect with Compound 1 on salivation” value ([1]; Fesoterodine 0.0078-0.5 mg/mL IV prior to Compound 1) of the same compound?
**A.** significant decrease of salivation in a consistent dose-responsive manner

**Q.** What about the “effect of fesoterodine pre-treatment on the increase in salivation post Compound 1 dosing” value (salivation; listed as fesoterodine) of the same compound?
**A.** nearly abolished both subjective reports of hypersalivation and the objective increase in saliva volume

**Q.** And the “effect of fesoterodine pre-treatment on the increase in salivation post Compound 1 dosing” value (salivation; listed as fesoterodine fumarate)?
**A.** not observed

**Q.** What about the “peripheral side effects observed after dosing” value ([2]; Group 1 Compound 1 1.5 mg/kg/day PO alone, Group 3 with fesoterodine fumarate 3 mg/kg/day PO, 7 days) of the same compound?
**A.** substantially reduced the peripheral effects

**Q.** What about the “Clinical Observation” value ([2]; 7 day period) of the same compound?
**A.** none

**Q.** What about the “Clinical Observation” value ([2]; day 1) of the same compound?
**A.** For D2001, miosis was found 1 hr 10 min after dosing on day 1. 2 hr
